These results are taken from US20170312274A1, “METHOD FOR TREATING A BRAIN TUMOUR” (The Hospital for Sick Children, priority 2014, published 2017).

One may read the IC50 as the concentration that gives 50% inhibition.

The test system of assay [1] is GNS cells (GBM-derived neural stem cells). Description: Secondary screen / dose response curve, Alamar Blue cell viability, five days. The assay is classed as cell-based, human. The conditions noted are these: for IC50: six GNS and four NS lines, IC50 based on approximate observed value, read-out: potency (IC50), growth inhibition of GNS cells. As for the experimental part: (§1) GNS and NS lines were grown as an adherent monolayer culture in serum free medium as described previously (Pollard et al. 2009. Cell stem cell 4, 568-580). Primary tumour cells were freshly dissociated from the patient sample in artificial cerebrospinal fluid followed by treatment with an enzyme cocktail at 37° C. (Singh et al. 2003. Cancer research 63, 5821-5828). BJ fibroblast, Daoy and C8-D1A and U-2 0S (ATCC) were maintained in DMEM with 10% FBS.
(§2) Cells were seeded in laminin-coated 384 well plates at a density of 2000 cells per well. Compounds were added at a concentration of approximately 5 μM and incubated with cells for five days at 37° C. Cell viability was assessed by measuring Alamar Blue incorporation according to the manufacturer's protocol (Invitrogen). Percent growth inhibition was calculated relative to the control DMSO wells.
(§3) The potency and selectivity of hits from the primary screen was tested in 8-point two-fold dilution series ranging from 50 μM-0.39 μM concentrations with more lines of GNS, NS and fibroblast. Experimental conditions were the same as in primary screen. IC50 was calculated based on an approximate observed value. Fold selectivity was calculated as IC50 of BJ/IC50 of any GNS cells with lowest IC50.

Another assay deals with GNS cells. Description: Caspase 3/7 activity and cleaved PARP in treated GNS cells. Type of assay: cell-based, human.
A further assay relates to G481 cells. Description: Combination/synergy screen with temozolomide, alamar blue. Type of assay: cell-based, human. The conditions noted are these: five days, COMPUSYN, CI <1 indicates synergism. As for the experimental part: (§4) 2000 GNS cells (G362 and G481) were seeded in a 96 well plate and treated with a combination of 6-point 2-fold dose series of either L-741,742 (6.25 μM-0.39 μM) or PNU 96415E (25 μM-1.56 μM) with 10-point 2-fold dose series of temozolomide (100 μM-0.39 μM) in 60 point combination doses. The cells were incubated with a combination of the two drugs for five days and then checked for cell viability using the alamar blue assay. Combination index (CI) plot and CI value was calculated for 5 point dose series in each combination using the programme COMPUSYN. Data points taken for COMPUSYN analysis are temozolomide (100, 50, 25, 12.5 and 6.25 μM) in combination with either L-741,742 (6.25, 3.12, 1.56, 0.78 and 0.39 μM) or PNU 96415E (25, 12.5, 6.25, 3.12 and 1.56 μM).
Background: Resazurin is reduced to fluorescent resorufin, in cell work by metabolically active cells.

A further assay concerns G362 cells. The assay is described as above. Type of assay: cell-based, human. The conditions noted are these: five days, COMPUSYN, CI <1 indicates synergism. As for the experimental part:
as §4

The next assay deals with G411 and G362 cells. The experiment in a line: Cell cycle analysis by flow cytometry of DNA content. Type of assay: cell-based, human. The conditions noted are these: L-741,742 10 μM, PNU 96415E 25 μM, time dependent. On the technique in general: Flow cytometry measures light scatter and fluorescence of single cells or particles in a stream.
Assay [2] concerns GNS cells (G411 and G362). Description: Autophagy markers (LC3B, p62) by western blot and immunofluorescence. Type of assay: cell-based, human. The conditions noted are these: for levels of LC3B-II: L-741,742 10 μM, PNU 96415E 25 μM, G411 and G362; for LC3-II levels in the presence of chloroquine compared to control: chloroquine 30 μM, 48 h, G411; for autophagy substrate p62: treated GNS cells (G411). As for the experimental part: Western blots were performed using the following antibodies; anti-DRD4 antibody at 1:750 (Millipore# MABN125), anti-activated MAPK at 1:2500 (Promega#V803A), anti-ERK1/2 at 1:2000 (Promega#V114A), anti-βactin at 1:10,000 (Sigma), anti-LC3B at 1:1000 (Cell Signaling #3868), anti-p62 at 1:1000 (BD Bioscience), anti-LAMP1 at 1:2000 (Developmental Studies Hybridoma Bank), anti-mono and polyubiquitinylated protein conjugates (FK2) at 1:1000 (Enzo Life Sciences).

The subject of assay [3] is freshly isolated primary GBM patient tumour cells. The experiment in a line: Primary in vitro limiting dilution assay (LDA), neurosphere formation. Type of assay: cell-based, human. The conditions noted are these: L-741,742 10 μM, PNU 96415E 25 μM, 14 days, n=3 patient tumours. As for the experimental part:
Limiting dilution assay was performed as described previously (Tropepe et al., 1999. Developmental Biology 208, 166-188). Primary tumours were dissociated into single cell suspension and seeded into a 96-well plate with 10 point-2 fold serial dilution starting from 2000 cells to 4 cells/well, 6 wells for each dilution per plate. Each well was scored for neurosphere formation after 14 days of incubation. Percent of wells not containing spheres for each cell density was calculated and plotted against the cells per well, regression lines were plotted and x-intercept value at 0.37 was calculated at 95% confidence interval using Sigma Plot, which gives the number of cells required to form at least one neurosphere.

Assay [4] relates to ERK1/2 phosphorylation in GNS (G362) cells. Description: Phospho-kinase antibody array. Type of assay: cell-based, human. The conditions noted are these: L-741,742 10 μM, PNU 25 μM, 24 h. As for the experimental part:
A human phospho-kinase antibody array was purchased from R&D systems (Cat# ARY003). This array contains capture antibodies for 43 kinases in duplicate on nitrocellulose membrane. GNS (G362) and NS (hf5205) lines were treated with L-741,742 (10 μM) and PNU 96415E (25 μM) along with a DMSO control for 24 h, and cells were then processed according to the manufacturer's protocol. Signal intensity was quantified using ImageJ.

Assay [5] has as its system colony forming cells of in vivo treated tumours. Description: In vitro LDA of in vivo treated xenograft tumours. Set-up: species or system mouse. The conditions noted are these: tumours treated in vivo 20 mg/kg i.p.; vehicle treated tumours 1 in every 11 cells. As for the experimental part:
All mouse procedures were approved by the Hospital for Sick Children's Animal Care Committee. To validate the in vivo effect of L-741,742 and PNU 96415E, 2×10^5 GNS cells in 200 μl of PBS and matrigel (1:1) were injected subcutaneously into flanks of non-obese diabetic/severe combined immunodeficient (NOD/SCID) female mice. 8 mice (2 tumours per mouse except for one mouse in control group that has one tumour) were maintained for each group; control (15 tumours), L-741,742 (16 tumours) and PNU 96415E (16 tumours). L-741,742 and PNU 96415E were dissolved in 40% 2 hydroxy β-cyclodextrin (Sigma). Mice were treated three days after tumour implantation. […] Tumour growth was monitored with microcalipers until tumour volume reached 17 mm in any one tumour from any group and all mice were sacrificed at the same end point. Dissected tumour volume was measured and mass was determined by weighing.
Limiting dilution assay was performed as described previously (Tropepe et al., 1999. Developmental Biology 208, 166-188). […] Each well was scored for neurosphere formation after 14 days of incubation. Percent of wells not containing spheres for each cell density was calculated and plotted against the cells per well, regression lines were plotted and x-intercept value at 0.37 was calculated at 95% confidence interval using Sigma Plot, which gives the number of cells required to form at least one neurosphere.

The subject of assay [6] is GNS cells (G362) subcutaneous tumour. Description: Patient derived subcutaneous xenograft (G362). The assay is classed as in vivo, mouse. The conditions noted are these: 20 mg/kg i.p., five days on and two days off, vs vehicle. As for the experimental part: All mouse procedures were approved by the Hospital for Sick Children's Animal Care Committee. To validate the in vivo effect of L-741,742 and PNU 96415E, 2×10^5 GNS cells in 200 μl of PBS and matrigel (1:1) were injected subcutaneously into flanks of non-obese diabetic/severe combined immunodeficient (NOD/SCID) female mice. 8 mice (2 tumours per mouse except for one mouse in control group that has one tumour) were maintained for each group; control (15 tumours), L-741,742 (16 tumours) and PNU 96415E (16 tumours). L-741,742 and PNU 96415E were dissolved in 40% 2 hydroxy β-cyclodextrin (Sigma). Mice were treated three days after tumour implantation. Both L-741,742 and PNU 96415E were injected (20 mg/kg) i.p for 5 days on two days off until the end point. Control group was injected with 40% 2 hydroxy β-cyclodextrin. Tumour growth was monitored with microcalipers until tumour volume reached 17 mm in any one tumour from any group and all mice were sacrificed at the same end point. Dissected tumour volume was measured and mass was determined by weighing.
(In general: A xenograft is tissue or cells of one species grown in another, often human tumour cells in immunodeficient mice.)

The target in the next assay is T1, DRD4 receptor (Homo sapiens, UniProt P21917).
T1 construct: endogenous in cells; host or cells: GNS line G362 (patient-derived glioblastoma neural stem cells)
T1 sequence (P21917 1-419): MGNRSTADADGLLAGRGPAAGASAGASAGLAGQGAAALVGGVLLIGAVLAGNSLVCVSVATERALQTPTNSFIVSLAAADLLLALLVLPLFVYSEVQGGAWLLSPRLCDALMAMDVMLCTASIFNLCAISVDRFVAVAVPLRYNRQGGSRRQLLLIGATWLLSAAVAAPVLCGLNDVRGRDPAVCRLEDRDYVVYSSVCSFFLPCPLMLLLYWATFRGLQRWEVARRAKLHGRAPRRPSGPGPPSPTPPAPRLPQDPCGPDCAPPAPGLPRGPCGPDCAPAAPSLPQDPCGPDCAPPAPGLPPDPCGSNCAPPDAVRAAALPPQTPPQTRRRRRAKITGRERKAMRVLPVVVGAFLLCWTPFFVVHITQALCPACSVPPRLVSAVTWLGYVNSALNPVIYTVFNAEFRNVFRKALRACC
Description: cAMP assay (ELISA-based) in GNS (G362) cells. Type of assay: cell-based. The conditions noted are these: pretreatment 30 μM for 15 minutes, then forskolin 30 μM. As for the experimental part:
cAMP levels were measured with an ELISA-based cAMP assay kit purchased from Cell Signaling (#4439). GNS (G362) cells were seeded overnight in a 96 well plate and treated with forskolin (30 μM) for 15 minutes, or pretreated with DRD4 agonist A412997 (30 μM) for 15 minutes followed by forskolin treatment. Cells were lysed and processed as per manufacturer's protocol.

The test system of assay [7] is non-NS control cells (BJ fibroblast, Daoy, U-2 0S, C8-D1A). Description: Dose response cell viability in non-NS control cell lines. The conditions noted are these: highest concentration tested 50 μM. The assay is classed as cell-based. As for the experimental part: as §1, §2, §3
[8] abbreviates: dose response series 0.39-50 μM.

Consider Ifenprodil tartrate, for which the “selectivity against GNS cells compared to NS cells” value (from here on “selectivity against GNS cells”) in assay [1] (setting [8]) came out at 8 fold.

With `Cc1c(C2CCN(CCc3ccccc3)CC2)noc1-c1ccc(Cl)cc1` [L-741,742], the “caspase 3/7 activity or cleaved PARP” value in the assay with GNS cells is reported as “no increase”. Further, the “lowest combination index (CI) value in combination with TMZ” value (“lowest combination index (CI) value” below) in the assay with G481 cells is listed as 0.28. For the same molecule, the “lowest combination index (CI) value” value with G362 cells was determined as 0.29. Further, the “effect on the cell cycle” value with G411 and G362 cells is given as “G0/G1 arrest”. In [2], the “levels of LC3B-II” value is recorded as “increase”, the “LC3-II levels in the presence of chloroquine compared to control” value is “did not increase” and the “autophagy substrate p62” value is given as “accumulated”. Further, the “reduction in frequency of colony forming cells in comparison to the control” value in assay [3] is given as 40-83 fold. In addition, in assay [4], the “reduction of ERK1/2 phosphorylation compared to the untreated control” value was 40%. Moreover, the “colony forming cell frequency, 1 in every x cells” value in assay [5] was determined as 76 cells. In addition, in assay [1] (setting [8]), the “selectivity against GNS cells” value is on record as 8 fold. Besides, the IC50 in assay [1] lay within 1.5 to 6.2 µM. The “average tumour weight at the end point reduced by” value in [6] amounted to 40.9%.

For the molecule PD168568, the half-maximal inhibitory concentration (IC50) in [1] is 25 to 50 µM.

Regarding `Clc1ccc(N2CCN(Cc3c[nH]c4ncccc34)CC2)cc1` [L-745,870], in [1], the IC50 lay in the range of 3.1 to 6.2 µM.

As for `Cc1cccc(NC(=O)CN2CCC(c3ccccn3)CC2)c1` [A412997], the “block of forskolin-induced cAMP response” value at DRD4 receptor is 38%.

Take `Br.Br.CN(CCc1ccc(Cl)c(Cl)c1)[C@@H]1CCCC[C@@H]1N1CCCC1` (racemic) [cis-(±)-N-Methyl-N-[2-(3,4-dichlorophenyl)ethyl]-2-(1-pyrrolidinyl)cyclohexamine 2HBr]: the “Fold selectivity towards GNS and NS cells compared to fibroblasts (IC50 of BJ/IC50 of any of the NS or GNS lines that showed the lowest IC50)” value in assay [1] (dose response series 0.39-50 μM, five days) is on record as 8 fold.

As to `Cl.Cl.Fc1ccc(N2CCN(CCC3OCCc4ccccc43)CC2)cc1` (centres unmarked) [PNU 96415E], the “caspase 3/7 activity or cleaved PARP” value in the assay with GNS cells is on record as “no increase”. For the same molecule, in the assay on G481 cells, the “lowest combination index (CI) value” value is listed as 0.32. Further, the “lowest combination index (CI) value” value in the assay on G362 cells is given as 0.56. Moreover, the “effect on the cell cycle” value with G411 and G362 cells is on record as “G0/G1 arrest”. The “sensitivity of non-NS control cells” value in assay [7] is given as “not sensitive even at the highest concentration tested”. In [2], the “levels of LC3B-II” value is “increase”, the “LC3-II levels in the presence of chloroquine compared to control” value was “did not increase” and the “autophagy substrate p62” value is “accumulated”. The “reduction in frequency of colony forming cells in comparison to the control” value in assay [3] is listed as 19-29 fold. In addition, the “reduction of ERK1/2 phosphorylation compared to the untreated control” value in assay [4] is 40%. Moreover, the “colony forming cell frequency, 1 in every x cells” value in [5] is recorded as 43 cells. Further, the “selectivity against GNS cells” value in assay [1] (setting [8]) is 8 fold. Besides, in assay [1], the IC50 was 6.25 µM. Further, the “average tumour weight at the end point reduced by” value in assay [6] turned out to be 44.3%.
